US4438120A, “Pyridoindolobenzodiazepine tranquilizers” (E. I. Du Pont de Nemours & Company, priority 1982, dated 1984)

system: Conditioned Avoidance Response (CAR); experiment: Conditioned Avoidance Response (CAR) test in mice, oral; format: in vivo, mouse (female white mice); conditions: female white mice, moving average method
Experimental: The paradigm used for predicting tranquilizer activity was a Conditioned Avoidance Response (CAR) test in mice. Female white mice, 19-23 g, were used. The apparatus modified from Bovet, D. et al., Science, 163, 139-149 (1969), was a one-way shuttlebox with 0.4 mA scrambled electric footshock as unconditioned stimulus (US) and a 6 watt white light plus a relay buzzer as conditioned stimuli (CS). Mice were conditioned by three sets of 1-5 trials on day 1, then were fasted for 17-21 hours. The conditioned mice were tested for retention of the conditioned response on day 2, and then were dosed orally with test drug at doses such as 0, 1, 3, 9, 27 and 81 mg/kg. ED50 values (doses at which 50% of the animals would be expected to show response failure) were calculated by the moving average method [Thompson, W. R., Bact. Rev., 11, 115 (1947)].

Row | SMILES | Mouse CAR ED50 (avoidance ED50, dose at which 50% of the animals would be expected to show response failure) [mg/kg]
1 | CCCN1CCc2c(c3c(Cl)ccc4c3n2-c2ccccc2C(=O)N4)C1 [Example 33] | 21.7
2 | CC(C)N1CCc2c(c3cccc4c3n2-c2ccccc2C(=O)N4)C1 [Example 31, 1,2,3,4-Tetrahydro-3-(2-propyl)pyrido[4',3':2,3]indolo[1,7-ab][1,4]benzodiazepin-9(8H)-one] | 23
3 | O=C(CCCN1CCc2c(c3cc(Cl)cc4c3n2-c2ccccc2C(=O)N4)C1)c1ccc(F)cc1 [Example 40] | 47
4 | CCN1CC[C@@H]2[C@@H](C1)c1cc(Cl)cc3c1N2c1ccccc1CN3C (relative stereo) [Example 106] | 5.8
